25 compounds from patent publication US8933039B2 (NPS Pharmaceuticals, Inc., priority 1995, dated 2015) can be followed below.

Non-standard residues stand in square brackets, D forms with d. Residues, ends and D or L forms follow the SMILES beside them. No end group written: not given here. Aib = CC(C)(N)C(=O)O

The subject of series [1] is CD1 mice. Kind of series: Intestinotrophic activity assessment: small bowel weight in mice. It counts as in vivo. Conditions: for % Activity (small bowel inducing activity relative to native rat GLP-2(1-33) = 100%): mice, as Example 4; for % Increase in small bowel weight: CD1 mice, 2.5 μg peptide s.c. b.i.d. in PBS, sacrificed 10 or 14 days, relative to vehicle only. On the procedure: Recipients were CD1 mice obtained from Charles River Laboratory (Ontario, Canada). The CD1 mice were aged-matched females at time of injection (n=3-4 per group), 6 weeks of age, unless otherwise specified. The animals were allowed a minimum of 24 hours to acclimatize to the laboratory facility before the initiation of each experiment. Animals were identified by ear punch. The mice were not restricted by diet or activity during the experiments. The light/dark cycle was 12 hours, between 6 pm to 6 am. Controls were age- and sex-matched (n=3-4) animals. Mice were injected subcutaneously, twice a day (b.i.d.), with 2.5 μg peptide in a total volume of 0.5 cc of PBS and were monitored daily in the laboratory facility. Animals were sacrificed 10 or 14 days after injection, and were fasted at least 20 hours before sacrifice.
The mice were anaesthetised with CO2 and exsanguinated by cardiac puncture. Blood was collected in 75 μl of TED (Trasysol; EDTA (5000 KIU/ml: 1.2 mg/ml; Diprotin-A), and the blood was centrifuged at 14 k×g for 5 minutes and the plasma was stored at −70 prior to analysis. The small bowel was removed from the peritoneal cavity, from pylorus to cecum, cleaned weighed and measured. For comparative purpose, sections from each animal were obtained from the identical anatomical position. Fragments each measuring 1.5-2.0 cm in length were obtained 8±2 cm, 18±2 cm, 32±2 cm from pylorus for histomorphometry representing proximal jejunum, distal jejunum and distal ileum. Each small bowel fragment was opened longitudinally on its antimesenteric border in a tissue block and then placed on 10% formalin (vol./vol.) overnight, then transferred to 70% […].
Percentage change in small bowel weight was calculated by dividing the mean change in bowel weight of analog treated mice, relative to mice treated with vehicle only, by the mean bowel weight of mice treated with vehicle only, and multiplying this figure by 100.
Experiments assessing the small bowel inducing activity of various analogs was repeated as described above for Example 4. In these experiments, the small bowel inducing activity of each analog in mice was calculated relative to that of native rat GLP-2(1-33) (expressed as 100% of activity). Resistance of analogs to DPP-IV cleavage was performed as described above in Example 3.

Series [2] deals with DPP-IV (Homo sapiens, UniProt P27487). Kind of series: Assay for resistance to dipeptidyl peptidase IV (RP-HPLC of cleavage product). Conditions: human, isolated human placental DPP-IV (dipeptidyl peptidase IV), pH 7.4, % Cleaved by DPP-IV, as Example 3: human placental DPP-IV, 37° C., PBS pH 7.4.
Sequence of DPP-IV (P27487 whole entry): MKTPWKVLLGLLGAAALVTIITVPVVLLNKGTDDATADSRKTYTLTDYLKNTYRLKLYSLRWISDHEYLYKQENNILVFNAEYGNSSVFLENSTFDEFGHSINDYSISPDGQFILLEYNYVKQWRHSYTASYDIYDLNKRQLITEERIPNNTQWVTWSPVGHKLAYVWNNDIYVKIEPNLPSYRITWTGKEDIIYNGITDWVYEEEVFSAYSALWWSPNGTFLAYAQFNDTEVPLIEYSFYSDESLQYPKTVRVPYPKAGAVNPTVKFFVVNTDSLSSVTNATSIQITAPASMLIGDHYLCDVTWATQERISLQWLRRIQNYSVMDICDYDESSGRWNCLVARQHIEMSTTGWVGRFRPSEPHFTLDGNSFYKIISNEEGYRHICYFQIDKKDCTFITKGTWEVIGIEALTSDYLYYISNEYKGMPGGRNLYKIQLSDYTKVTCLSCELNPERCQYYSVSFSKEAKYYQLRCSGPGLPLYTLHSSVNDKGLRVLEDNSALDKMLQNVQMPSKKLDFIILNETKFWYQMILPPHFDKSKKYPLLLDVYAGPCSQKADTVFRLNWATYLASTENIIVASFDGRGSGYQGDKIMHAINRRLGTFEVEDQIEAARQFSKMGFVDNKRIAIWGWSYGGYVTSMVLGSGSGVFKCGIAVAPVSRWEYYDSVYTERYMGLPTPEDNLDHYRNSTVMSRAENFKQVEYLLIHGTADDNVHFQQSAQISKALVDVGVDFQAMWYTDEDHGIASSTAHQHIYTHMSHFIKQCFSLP
Method: The mixture was incubated at 37° C. in a circulating water bath for 24 hours. The incubation was quenched by the addition of 50 μl of a solution of diprotin A prepared at a concentration of 4 mg/ml in PBS. Each peptide was tested in duplicate.
Each sample was analyzed by reverse-phase (RP) HPLC as follows: 90 μl of the quenched incubation mixture was injected onto a Rainin Dynamax 300 Å, C18, 5 micron, 4.6×250 millimeter column. The samples were eluted with 0.1% trifluoroacetic acid (TFA) in water modified with 0.1% acetonitrile using a linear gradient and a flow rate of 1 ml per minute. Sample components were detected at 214 nanometers (nm). The extent of cleavage was measured by relative integration of the peak corresponding to the cleavage product compared to that of the remaining undigested parent peptide.

On to `CC[C@H](C)[C@H](NC(=O)[C@H](Cc1ccccc1)NC(=O)[C@H](CC(=O)O)NC(=O)[C@H](CCCNC(=N)N)NC(=O)[C@H](C)NC(=O)[C@H](C)NC(=O)[C@H](CC(C)C)NC(=O)[C@H](CC(N)=O)NC(=O)[C@H](CC(=O)O)NC(=O)[C@H](CC(C)C)NC(=O)[C@@H](NC(=O)[C@@H](NC(=O)[C@H](CC(N)=O)NC(=O)[C@H](CCSC)NC(=O)[C@H](CCC(=O)O)NC(=O)[C@H](CC(=O)O)NC(=O)[C@H](CO)NC(=O)[C@H](Cc1ccccc1)NC(=O)[C@H](CO)NC(=O)CNC(=O)[C@H](CC(=O)O)NC(=O)C(C)(C)NC(=O)[C@@H](N)Cc1c[nH]cn1)[C@@H](C)O)[C@@H](C)CC)C(=O)N[C@@H](CC(N)=O)C(=O)N[C@@H](Cc1c[nH]c2ccccc12)C(=O)N[C@@H](CC(C)C)C(=O)N[C@H](C(=O)N[C@@H](CCC(N)=O)C(=O)N[C@H](C(=O)N[C@@H](CCCCN)C(=O)N[C@H](C(=O)N[C@H](C(=O)N[C@@H](CC(=O)O)C(=O)O)[C@@H](C)O)[C@@H](C)CC)[C@@H](C)O)[C@@H](C)CC` [[Aib2]hGLP-2(1-33)] (H-H[Aib]DGSFSDEMNTILDNLAARDFINWLIQTKITD-OH), for which, in series [1], the “% Activity (small bowel inducing activity relative to native rat GLP-2(1-33) = 100%)” value was determined as 202%. In addition, the metabolised at 24 h, 0.19 mg/ml in series [2] turned out to be 0%. For `CC[C@H](C)[C@H](NC(=O)[C@H](Cc1ccccc1)NC(=O)[C@H](CC(=O)O)NC(=O)[C@H](CCCNC(=N)N)NC(=O)[C@H](C)NC(=O)[C@H](C)NC(=O)[C@H](CC(C)C)NC(=O)[C@H](CC(N)=O)NC(=O)[C@H](CC(=O)O)NC(=O)[C@H](CC(C)C)NC(=O)[C@@H](NC(=O)[C@@H](NC(=O)[C@H](CC(N)=O)NC(=O)[C@H](CCSC)NC(=O)[C@H](CCC(=O)O)NC(=O)[C@H](CC(=O)O)NC(=O)[C@H](CO)NC(=O)[C@H](Cc1ccccc1)NC(=O)[C@H](CO)NC(=O)CNC(=O)[C@H](CC(=O)O)NC(=O)[C@@H](C)NC(=O)[C@@H](N)Cc1c[nH]cn1)[C@@H](C)O)[C@@H](C)CC)C(=O)N[C@@H](CC(N)=O)C(=O)N[C@@H](Cc1c[nH]c2ccccc12)C(=O)N[C@@H](CC(C)C)C(=O)N[C@H](C(=O)N[C@@H](CCC(N)=O)C(=O)N[C@H](C(=O)N[C@@H](CCCCN)C(=O)N[C@H](C(=O)N[C@H](C(=O)N[C@@H](CC(=O)O)C(=O)O)[C@@H](C)O)[C@@H](C)CC)[C@@H](C)O)[C@@H](C)CC` [[D-Ala2]hGLP-2(1-33)], in that order: 130% and 0%. The matching figures for `CC[C@H](C)[C@H](NC(=O)[C@H](Cc1ccccc1)NC(=O)[C@H](CC(=O)O)NC(=O)[C@H](CCCNC(=N)N)NC(=O)[C@H](C)NC(=O)[C@H](C)NC(=O)[C@H](CC(C)C)NC(=O)[C@H](CC(N)=O)NC(=O)[C@H](CC(=O)O)NC(=O)[C@H](CC(C)C)NC(=O)[C@@H](NC(=O)[C@@H](NC(=O)[C@H](CC(N)=O)NC(=O)[C@H](CCSC)NC(=O)[C@H](CCC(=O)O)NC(=O)[C@H](CC(=O)O)NC(=O)[C@H](CO)NC(=O)[C@H](Cc1ccccc1)NC(=O)[C@H](CO)NC(=O)CNC(=O)[C@H](CC(=O)O)NC(=O)CNC(=O)[C@@H](N)Cc1c[nH]cn1)[C@@H](C)O)[C@@H](C)CC)C(=O)N[C@@H](CC(N)=O)C(=O)N[C@@H](Cc1c[nH]c2ccccc12)C(=O)N[C@@H](CC(C)C)C(=O)N[C@H](C(=O)N[C@@H](CCC(N)=O)C(=O)N[C@H](C(=O)N[C@@H](CCCCN)C(=O)N[C@H](C(=O)N[C@H](C(=O)N[C@@H](CC(=O)O)C(=O)N[C@@H](CCCNC(=N)N)C(=O)O)[C@@H](C)O)[C@@H](C)CC)[C@@H](C)O)[C@@H](C)CC` [[Gly2, Arg34]hGLP-2(1-34)]: ~250% and 0%. Take “H-HGDGSFADEMNTILDNLAARDFINWLIQTKITD-OH [[Gly2,Ala7]hGLP-2(1-33)]”: in series [1], the “% Increase in small bowel weight” value worked out at 22% and the “% Activity (small bowel inducing activity relative to native rat GLP-2(1-33) = 100%)” value is 82%. For “H-HGDGSFSAEMNTILDNLAARDFINWLIQTKITD-OH [[Gly2,Ala8]hGLP-2(1-33)]”, in series [1], the “% Increase in small bowel weight” value came to 33% and the “% Activity (small bowel inducing activity relative to native rat GLP-2(1-33) = 100%)” value turned out to be 120%. With “H-HGDGSFSDAMNTILDNLAARDFINWLIQTKITD-OH [[Gly2,Ala9]hGLP-2(1-33)]”, in series [1], the “% Increase in small bowel weight” value amounted to 31% and the “% Activity (small bowel inducing activity relative to native rat GLP-2(1-33) = 100%)” value is given as 112%. As to “H-HGDGSFSDEANTILDNLAARDFINWLIQTKITD-OH [[Gly2,Ala10]hGLP-2(1-33)]”, in series [1], the “% Increase in small bowel weight” value amounted to 33% and the “% Activity (small bowel inducing activity relative to native rat GLP-2(1-33) = 100%)” value was 82%.

On to “H-HGDGSFSDEMATILDNLAARDFINWLIQTKITD-OH [[Gly2,Ala11]hGLP-2(1-33)]”, for which, in series [1], the “% Increase in small bowel weight” value is 42% and the “% Activity (small bowel inducing activity relative to native rat GLP-2(1-33) = 100%)” value came out at 150%. For “H-HGDGSFSDEMNAILDNLAARDFINWLIQTKITD-OH [[Gly2,Ala12]hGLP-2(1-33)]”, in that order: 18% and 67%. The matching figures for “H-HGDGSFSDEMNTALDNLAARDFINWLIQTKITD-OH [[Gly2,Ala13]hGLP-2(1-33)]”: 18% and 67%. Regarding “H-HGDGSFSDEMNTIADNLAARDFINWLIQTKITD-OH [[Gly2,Ala14]hGLP-2(1-33)]”, the “% Activity (small bowel inducing activity relative to native rat GLP-2(1-33) = 100%)” value in series [1] was determined as 30%. For “H-HGDGSFSDEMNTILDALAARDFINWLIQTKITD-OH [[Gly2,Ala16]hGLP-2(1-33)]”, in series [1], the “% Increase in small bowel weight” value came to 36% and the “% Activity (small bowel inducing activity relative to native rat GLP-2(1-33) = 100%)” value stood at 130%. For “H-HGDGSFSDEMNTILDNAAARDFINWLIQTKITD-OH [[Gly2,Ala17]hGLP-2(1-33)]”, in that order: 36% and 130%. For “H-HGDGSFSDEMNTILDNLAAADFINWLIQTKITD-OH [[Gly2,Ala20]hGLP-2(1-33)]”, in that order: 46% and 105%. The matching figures for “H-HGDGSFSDEMNTILDNLAARAFINWLIQTKITD-OH [[Gly2,Ala21]hGLP-2(1-33)]”: 35% and 125%. “H-HGDGSFSDEMNTILDNLAARDFANWLIQTKITD-OH [[Gly2,Ala23]hGLP-2(1-33)]”: in series [1], the “% Activity (small bowel inducing activity relative to native rat GLP-2(1-33) = 100%)” value turned out to be 24%.

Take “H-HGDGSFSDEMNTILDNLAARDFINALIQTKITD-OH [[Gly2,Ala25]hGLP-2(1-33)]”: in series [1], the “% Activity (small bowel inducing activity relative to native rat GLP-2(1-33) = 100%)” value turned out to be 18%. The same measure, in the same setting: to “H-HGDGSFSDEMNTILDNLAARDFINWAIQTKITD-OH [[Gly2,Ala26]hGLP-2(1-33)]” belongs 28%. For “H-HGDGSFSDEMNTILDNLAARDFINWLAQTKITD-OH [[Gly2,Ala27]hGLP-2(1-33)]”, in series [1], the “% Increase in small bowel weight” value is on record as 22% and the “% Activity (small bowel inducing activity relative to native rat GLP-2(1-33) = 100%)” value came out at 82%. With “H-HGDGSFSDEMNTILDNLAARDFINWLIATKITD-OH [[Gly2,Ala28]hGLP-2(1-33)]”, in series [1], the “% Increase in small bowel weight” value was 31% and the “% Activity (small bowel inducing activity relative to native rat GLP-2(1-33) = 100%)” value is 130%. Consider “H-HGDGSFSDEMNTILDNLAARDFINWLIQTAITD-OH [[Gly2,Ala30]hGLP-2(1-33)]”, for which the “% Activity (small bowel inducing activity relative to native rat GLP-2(1-33) = 100%)” value in series [1] is 24%. “H-HGDGSFSDEMNTILDNLAARDFINWLIQTKATD-OH [[Gly2,Ala31]hGLP-2(1-33)]”: in series [1], the “% Increase in small bowel weight” value is listed as 28% and the “% Activity (small bowel inducing activity relative to native rat GLP-2(1-33) = 100%)” value was found to be 100%. Turning to “HSQGSFSDEMNTILDNLAARDFINWLIQTKITD [[Ser2,Gln3]hGLP-2(1-33)]”, the metabolised at 24 h, 0.19 mg/ml in series [2] was determined as 0%. Same read-out and setting: with “RRADGSFSDEMNTILDNLATRDFINWLIQTKITD [[Arg-2,Arg-1]ratGLP-2(2-33)]” the figure was 0%. Turning to [Met SO2^10]rGLP-2, the “% Increase in small bowel weight” value in series [1] is reported as 8%.
